Test results as given in paper PMC9356275, “A quantitative high-throughput screen identifies compounds that lower expression of the SCA2-and ALS-associated gene ATXN2” (The Journal of Biological Chemistry, 2022).
Structures can show the parent of a compound that is named as a salt. Where two headings read alike, the source gives them in different places.

Legend:
Assay type in all cases: cell-based, human
H2 and S1 cells = assay: Paired MTT viability assay, average of H2 and S1 cells (1 and 10 uM); parameters: H2&S1 ave MTT 1uM / H2&S1 ave MTT 10uM: unit not given here; conditions: for viability at 1 µM / viability at 10 µM: Homo sapiens
Excerpt: (§1) Supplement mmc2.xlsx, sheet "43 annotated compounds"

ATXN2-luc [1] = assay: MSSR hit retest / multiconcentration testing: ATXN2-luc luciferase assay in H2 cells (1 and 10 μM); conditions: for H2&S1 ave luc 1uM: 1 uM compound; for H2&S1 ave luc 10uM: 10 uM compound
ATXN2-luc [2] = assay: MSSR pilot screen: ATXN2-luc luciferase assay (Bright-Glo) in H2 cells, single 10 μM dose; conditions: for SD from mean (ATXN2-luc, Z-score): H2 cells, single dose (title: 10 μM compound), overnight; for ¦Score/1SD¦: absolute score divided by 1SD (0.891 or 0.9)
ATXN2-luc [3] = assay: MSSR hit retest: ATXN2-luc luciferase assay, average of H2 and S1 cells (1 and 10 uM); parameters: H2&S1 ave luc 1uM / H2&S1 ave luc 10uM: scale not given here; conditions: for activity at 1 µM / activity / activity at 10 µM: Homo sapiens; for activity at 1 µM: read-out: H2&S1 ave luc 1uM; for activity / activity at 10 µM: read-out: H2&S1 ave luc 10uM; for H2&S1 ave luc 10uM / activity at 10 µM: head line r3 10uM; for H2&S1 ave luc 10uM: head line r4 20 uM compound
Excerpt: as §1

[4] = read-out: H2&S1 ave MTT 1uM, 1 uM compound
[5] = read-out: H2&S1 ave MTT 10uM, 10 uM compound
[6] = luciferase assay, average of H2 and S1 cells (both ATXN2-luc), rescreen from plated libraries
[7] = pilot screen, H2 cells expressing ATXN2-luc, single dose printed as 10 μM compound
[8] = luciferase, average of H2 and S1 cells expressing ATXN2-luc, rescreen
[9] = pilot screen at 10 µM compound, H2 cells expressing ATXN2-luc
[10] = 1 uM compound, average of H2 and S1 cells
[11] = 1 uM compound, read-out: H2&S1 ave MTT 1uM
[12] = 10 uM compound, read-out: H2&S1 ave MTT 10uM

| Compound | H2&S1 ave luc 1uM (ATXN2-luc [1]; [6]) | SD from mean (ATXN2-luc, Z-score) (ATXN2-luc [2]) [SD] | SD from mean (pilot screen) (ATXN2-luc [2]; pilot screen) [SD] | SD from mean (pilot screen) (ATXN2-luc [2]; [7]) | ¦Score/1SD¦ (ATXN2-luc [2]; pilot screen) | H2&S1 ave MTT 1uM (H2 and S1 cells; 1 uM compound) | H2&S1 ave MTT 10uM (H2 and S1 cells; 10 uM compound) | H2&S1 ave luc 1uM (ATXN2-luc [1]; [8]) | H2&S1 ave luc 10uM (ATXN2-luc [1]; [8]) | SD from mean (pilot screen) (ATXN2-luc [2]; [9]) | H2&S1 ave luc 1uM (ATXN2-luc [3]; [10]) | H2&S1 ave luc 10uM (ATXN2-luc [3]; average of H2 and S1 cells) | H2&S1 ave luc 10uM (ATXN2-luc [1]; [6]) | also measured |
| --- | --- | --- | --- | --- | --- | --- | --- | --- | --- | --- | --- | --- | --- | --- |
| CCCCCCCCCOc1ccc2[nH]cc(CCN)c2c1 [5-Nonyloxytryptamine] | 111 | -3.607 | -3.607 | -3.607 | 4.01 |  |  |  |  |  |  |  |  | viability at 1 µM (H2 and S1 cells; [4]): 114%; viability at 10 µM (H2 and S1 cells; [5]): 23.7%; activity at 1 µM (ATXN2-luc [3]): 111%; activity (ATXN2-luc [3]): 4.61% |
| C/C1=C2/[N-][C@H]([C@H](CC(N)=O)[C@@]2(C)CCC(=O)NC[C@@H](C)OP(=O)([O-])O[C@H]2[C@@H](O)[C@@H](n3cnc4cc(C)c(C)cc43)O[C@@H]2CO)[C@]2(C)N=C(/C(C)=C3N=C(/C=C4N=C1[C@@H](CCC(N)=O)C\4(C)C)[C@@H](CCC(N)=O)[C@]\3(C)CC(N)=O)[C@@H](CCC(N)=O)[C@]2(C)CC(N)=O.[Co] [COBALAMINE] |  | -5.111 | -5.111 |  | 5.68 | 115.867 | 108.02 | 126 | 109 | -5.111 | 126 | 109 |  |  |
| CC[C@H]1CN2CCc3cc(OC)c(OC)cc3[C@@H]2C[C@@H]1C[C@H]1NCCc2cc(O)c(OC)cc21.Cl.Cl.O.O.O.O.O.O.O [Cephaeline dihydrochloride heptahydrate] |  | -4.055 | -4.055 |  | 4.55 | 59.1374 | 62.1025 | 16 | 17 | -4.055 | 16 | 17 |  |  |
| CO[C@H]1[C@@H](O)[C@@H](C)O[C@@H](O[C@H]2CC[C@]3(C)[C@H]4CC[C@]5(C)[C@@H](C6=CC(=O)OC6)CC[C@]5(O)[C@@H]4CC[C@]3(O)C2)[C@@H]1O [EMICYMARIN] | 115 | -3.080 | -3.080 | -3.080 | 3.42 | 111.923 | 53.425 |  |  |  | 115 | 31 | 31 |  |
| CNC1CC(c2ccc(Cl)c(Cl)c2)c2ccccc21 (stereo not drawn) [Indatraline] | 107 |  | -3.071 | -3.071 | 3.41 |  |  |  |  |  |  |  |  | viability at 1 µM (H2 and S1 cells; [4]): 117%; viability at 10 µM (H2 and S1 cells; [5]): 13.5%; activity at 1 µM (ATXN2-luc [3]): 107%; activity (ATXN2-luc [3]): 5.53% |
| CS(=O)(=O)Nc1ccc(Cc2noc(-c3ccc4[nH]cc(CCN)c4c3)n2)cc1 [L-694 247] | 110 | -3.156 | -3.156 | -3.156 | 3.51 | 107.272 | 16.3621 |  |  |  | 110 | 6 | 6 |  |
| CC1=CC(=O)c2ccccc2C1=O [Menadione] | 115 | -3.434 | -3.434 | -3.434 | 3.85 |  |  |  |  |  |  |  |  | viability at 1 µM (H2 and S1 cells; [11]): 153%; viability at 10 µM (H2 and S1 cells; [12]): 103%; activity at 1 µM (ATXN2-luc [3]; [10]): 115%; activity at 10 µM (ATXN2-luc [3]; average of H2 and S1 cells): 35% |
| COc1ccc(CCCOC(Cn2ccnc2)c2ccc(OC)cc2)cc1 (stereo not drawn) [SKF-96365] | 104 | -2.721 | -2.721 | -2.721 | 3.05 | 115.609 | 90.0391 |  |  |  | 104 | 57 | 57 |  |
| CC(C)c1cc(/C=C(\C#N)C(=O)NCCCc2ccccc2)cc(C(C)C)c1O [SU1498] |  | -4.885 | -4.885 |  | 5.48 | 86.0811 | 61.708 | 22 | 15 | -4.885 | 22 | 15 |  |  |
| [H]/N=C(/NCCCCC)N/N=C/c1c[nH]c2ccc(OC)cc12 [TEGASEROD MALEATE] | 105 | -3.606 | -3.606 | -3.606 | 4.01 |  |  |  |  |  |  |  |  | viability at 1 µM (H2 and S1 cells; [11]): 106%; viability at 10 µM (H2 and S1 cells; [12]): 14.2%; activity at 1 µM (ATXN2-luc [3]; [10]): 105%; activity at 10 µM (ATXN2-luc [3]; average of H2 and S1 cells): 8% |
| CCN(CC)CCCCCCCCOC(=O)c1cc(OC)c(OC)c(OC)c1 [TMB-8] |  | -5.740 | -5.740 |  | 6.44 | 73.9218 | 52.1193 | 66 | 53 | -5.740 | 66 | 53 |  |  |
| COc1cccc(C2(O)CCCCC2CN(C)C)c1 (stereo not drawn) [Tramadol] | 107 | -3.415 | -3.415 | -3.415 | 3.79 |  |  |  |  |  |  |  | 134 | viability at 1 µM (H2 and S1 cells; [4]): 128%; viability at 10 µM (H2 and S1 cells; [5]): 113%; activity at 1 µM (ATXN2-luc [3]): 107%; activity (ATXN2-luc [3]): 134% |
| O=c1[nH]c(=O)n([C@H]2C[C@H](O)[C@@H](CO)O2)cc1C(F)(F)F [Trifluridine] |  | -5.158 | -5.158 |  | 5.79 |  |  | 102 |  | -5.158 |  |  |  | viability at 1 µM (H2 and S1 cells; [11]): 80.3%; viability at 10 µM (H2 and S1 cells; [12]): 53%; activity at 1 µM (ATXN2-luc [3]; [10]): 102%; activity at 10 µM (ATXN2-luc [3]; average of H2 and S1 cells): 71% |
| C1CCC(N=C(NC23CC4CC(CC(C4)C2)C3)N2CCOCC2)CC1.Cl [U-37883A] |  | -4.965 | -4.965 |  | 5.57 | 105.463 | 56.7572 | 94 | 17 | -4.965 | 94 | 17 |  |  |
| Cyanocobalamin | 110 | -2.681 | -2.681 | -2.681 | 3.01 | 151.543 | 134.855 |  |  |  | 110 | 140 | 140 |  |
